The text below walks through data of patent publication US9908890B2, “Selective inhibitors of constitutive androstane receptor” (ST. JUDE CHILDREN'S RESEARCH HOSPITAL, priority 2014, dated 2018).

For this experiment, the target named is T1, GST-hCAR-LBD (Homo sapiens, UniProt Q14994).
T1 construct: purchased Life Technologies (Carlsbad, Calif.) or Invitrogen (Carlsbad, Calif.)
T1 sequence (Q14994 109-352 limits assumed): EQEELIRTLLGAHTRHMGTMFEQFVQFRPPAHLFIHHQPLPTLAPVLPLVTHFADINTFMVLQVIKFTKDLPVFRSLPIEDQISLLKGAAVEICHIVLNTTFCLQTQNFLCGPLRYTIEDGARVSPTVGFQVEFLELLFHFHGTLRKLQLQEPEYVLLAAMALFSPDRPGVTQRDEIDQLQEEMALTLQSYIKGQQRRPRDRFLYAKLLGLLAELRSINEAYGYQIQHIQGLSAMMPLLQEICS
Description: CoAct binding inverse agonist assay (LanthaScreen TR-FRET, fluorescent PGC-1α coactivator recruitment/repression). Format: biochemical. Conditions: for fold increase of CAR inverse agonistic activity (potency) over lead chemical 1 (CINPA1) / fold increase of IC50 (decrease of activity) relative to lead chemical 1 (CINPA1): relative to chemical 1; for inhibition at 70 µM: read-out: % Inhibition (70 μM). As for the experimental part: The effect of putative CAR ligands on the recruitment or repression of PGC-1α binding to hCAR was evaluated by using a LanthaScreen TR-FRET assay according to the manufacturer's instructions. […] The final DMSO concentration was 0.7% in all assay wells. […] The % Inhibition values were then plotted for individual chemicals. When applicable, the graphic software GraphPad Prism 5.04 (GraphPad Software, La Jolla, Calif., USA) was used to fit the data into a one-site competitive-binding equation to derive IC50 values. […] The assay plates were then briefly spun down and incubated for 1 hour at room temperature (25° C.). […] The final DMSO concentration was 0.7% in all assay wells. […] The % Inhibition values were then plotted for individual chemicals. When applicable, the graphic software GraphPad Prism 5.04 (GraphPad Software, La Jolla, Calif., USA) was used to fit the data into a one-site competitive-binding equation to derive IC50 values.
In general terms: TR-FRET usually uses a lanthanide donor and a delayed reading to cut background.

Setting [1] is: read-out: IC50 (CAR inverse agonistic activity).
Setting [2] is: 70 μM compound, 42 μM clotrimazole = 100%, DMSO = 0%.
The mark [3] stands for this setting: quoted in SAR text in nM, read-out: IC50 (CAR inverse agonistic activity).

Read-outs that look alike come from different tables or passages of the source.

Broadly, the IC50 is the midpoint of a concentration-inhibition curve. As for `O=C(Nc1ccc2c(c1)N(C(=O)Cn1cccc1)c1ccccc1CC2)OC1CCCCC1` [Compound 44, cyclohexyl (5-(2-(1H-pyrrol-1-yl)acetyl)-10,11-dihydro-5H-dibenzo[b,f]azepin-3-yl)carbamate], the “fold increase of CAR inverse agonistic activity (potency) over lead chemical 1 (CINPA1)” value (shortened to “fold increase … over lead chemical 1 (CINPA1)”) is given as “approximately 59 fold”. The IC50 under setting [1] was determined as 12 nM.

With `O=C(Nc1ccc2c(c1)N(C(=O)N1CCCCC1)c1ccccc1CC2)OC1CCCCC1` [Compound 59], the IC50 (Table 4, read-out: IC50) is 150 nM.

`O=C(Nc1ccc2c(c1)N(C(=O)n1cccc1)c1ccccc1CC2)OC1CCCCC1` [Compound 58]: the IC50 (Table 4, read-out: IC50) turned out to be 14 nM.

On to `CC(C)OC(=O)Nc1ccc2c(c1)N(C(=O)n1cccc1)c1ccccc1CC2` [Compound 55], for which, where the note is “Table 4, read-out: IC50”, the IC50 stood at 18 nM.

Usually inhibition stands for the change of the read-out against control, counted positive when it falls. In the case of `CCCC(=O)Nc1ccc2c(c1)N(C(=O)CN(CC)CC)c1ccccc1CC2` [Compound 2, N-(5-(diethylglycyl)-10,11-dihydro-5H-dibenzo[b,f]azepin-3-yl)butyramide], the inhibition at 70 µM under setting [2] was 106%. In addition, the half-inhibitory concentration (IC50) under setting [3] amounted to 2320 nM.

For `CCNCC(=O)N1c2ccccc2CCc2ccc(NC(=O)OCC)cc21` [Compound 24, ethyl (5-(ethylglycyl)-10,11-dihydro-5H-dibenzo[b,f]azepin-3-yl)carbamate], the “fold increase of IC50 (decrease of activity) relative to lead chemical 1 (CINPA1)” value is recorded as “over 35 fold”. Besides, the inhibition at 70 µM under setting [2] came out at 88.4%. In addition, the IC50 (Table 4, read-out: IC50) worked out at 24500 nM.

As for `CCCN(CCC)CC(=O)N1c2ccccc2CCc2ccc(NC(=O)OCC)cc21` [Compound 11, ethyl (5-(dipropylglycyl)-10,11-dihydro-5H-dibenzo[b,f]azepin-3-yl)carbamate], the “fold increase … over lead chemical 1 (CINPA1)” value stood at 3 fold. For the same compound, under setting [2], the inhibition at 70 µM worked out at 113%. Moreover, the half-maximal inhibitory concentration (IC50) under setting [1] was 210 nM.

Consider `CC(C)OC(=O)Nc1ccc2c(c1)N(C(=O)CCN1CCN(CCO)CC1)c1ccccc1CC2` [compound 88], for which the IC50 reads like this: (Table 6, CINPA1 and commercially available analogs, read-out: IC50) more than 70000 nM; under setting [1], more than 70000 nM.

Take `CC(C)OC(=O)Nc1ccc2c(c1)N(C(=O)COC1CC1)c1ccccc1CC2` [Compound 33, isopropyl (5-(2-cyclopropoxyacetyl)-10,11-dihydro-5H-dibenzo[b,f]azepin-3-yl)carbamate]: the IC50 under setting [1] came to 82 nM.

Consider `O=C(Nc1ccc2c(c1)N(C(=O)Cc1ccco1)c1ccccc1CC2)OC1CCCCC1` [Compound 67], for which the IC50 (Table 4, read-out: IC50) was found to be 31 nM.

Take `Clc1ccccc1C(c1ccccc1)(c1ccccc1)n1ccnc1` [Clotrimazole, reference compound]: the inhibition at 42 µM (42 μM clotrimazole, positive control) was 100%.

In the case of `O=C(Nc1ccc2c(c1)N(C(=O)Cn1cccc1)c1ccccc1CC2)N1CCOCC1` [Compound 48], the IC50 (Table 4, read-out: IC50) worked out at 370 nM.

With `O=C(Nc1ccc2c(c1)N(C(=O)Cc1cccs1)c1ccccc1CC2)OC1CCCCC1` [Compound 66], the IC50 (Table 4, read-out: IC50) amounted to 26 nM.

As to `CCOC(=O)Nc1ccc2c(c1)N(C(=O)CN1CCCC1)c1ccccc1CC2` [Compound 13, ethyl (5-(2-(pyrrolidin-1-yl)acetyl)-10,11-dihydro-5H-dibenzo[b,f]azepin-3-yl)carbamate], the “fold increase of IC50 (decrease of activity) relative to lead chemical 1 (CINPA1)” value is given as “more than 2 fold”. For the same compound, the inhibition at 70 µM under setting [2] was 115%. Moreover, under “Table 4, read-out: IC50”, the IC50 was 1580 nM. For the same compound, the IC50 under setting [3] was 1580 nM. The 50% inhibitory concentration (IC50) under setting [1] is 1580 nM.

As to `CCCN(CCC)CC(=O)N1c2ccccc2CCc2ccc(NC(=O)OC(C)(C)C)cc21` [Compound 37, tert-butyl (5-(dipropylglycyl)-10,11-dihydro-5H-dibenzo[b,f]azepin-3-yl)carbamate], the half-maximal inhibitory concentration (IC50) runs as follows: (Table 4, read-out: IC50) 153 nM; under setting [1], 150 nM.

As for `CC(C)OC(=O)Nc1ccc2c(c1)N(C(=O)COC1CCCCC1)c1ccccc1CC2` [Compound 36, isopropyl (5-(2-(cyclohexyloxy)acetyl)-10,11-dihydro-5H-dibenzo[b,f]azepin-3-yl)carbamate], the IC50 under setting [1] amounted to 24 nM.

For the compound `CC(C)(C)OC(=O)Nc1ccc2c(c1)N(C(=O)CN1CCCCC1)c1ccccc1CC2` [Compound 38, tert-butyl (5-(2-(piperidin-1-yl)acetyl)-10,11-dihydro-5H-dibenzo[b,f]azepin-3-yl)carbamate], under setting [1], the IC50 came to 220 nM.

In the case of `CC(C)OC(=O)Nc1ccc2c(c1)N(C(=O)CN1CCCCC1)c1ccccc1CC2` [Compound 27, isopropyl (5-(2-(piperidin-1-yl)acetyl)-10,11-dihydro-5H-dibenzo[b,f]azepin-3-yl)carbamate], the 50% inhibitory concentration (IC50) under setting [1] amounted to 250 nM.

`CC(C)OCC(=O)N1c2ccccc2CCc2ccc(NC(=O)OC(C)C)cc21` [Compound 30, isopropyl (5-(2-isopropoxyacetyl)-10,11-dihydro-5H-dibenzo[b,f]azepin-3-yl)carbamate]: under setting [1], the IC50 was found to be 60 nM.

As for `CCNC(=O)Nc1ccc2c(c1)N(C(=O)CN(CC)CC)c1ccccc1CC2` [Compound 5, 1-(5-(diethylglycyl)-10,11-dihydro-5H-dibenzo[b,f]azepin-3-yl)-3-ethylurea], the inhibition at 70 µM under setting [2] came out at 94.9%. The IC50 under setting [1] is 14400 nM.

Take `CCNCC(=O)N1c2ccccc2CCc2ccc(NC(=O)OCC)cc21` [Compound 71]: the “% Inhibition (70 μM)” value under setting [2] came to 77.6%. Also, the half-maximal inhibitory concentration (IC50) (Table 4, read-out: IC50) came out at 28000 nM.

As to `CC(C)OC(=O)Nc1ccc2c(c1)N(C(=O)OCC(C)(C)C)c1ccccc1CC2` [Compound 57], the IC50 (Table 4, read-out: IC50) came to 25 nM.

As for `CC(C)OCC(=O)N1c2ccccc2CCc2ccc(NC(=O)OC(C)(C)C)cc21` [Compound 39, tert-butyl (5-(2-isopropoxyacetyl)-10,11-dihydro-5H-dibenzo[b,f]azepin-3-yl)carbamate], the IC50 under setting [1] was found to be 120 nM.

For `CC(C)OC(=O)Nc1ccc2c(c1)N(C(=O)CCN(C)C)c1ccccc1CC2` [compound 89], under setting [1], the IC50 was 1790 nM. The “fold increase of potency compared to chemical 86” value (relative to chemical 86) is recorded as “about 3 fold”.

On to `CC(C)OC(=O)Nc1ccc2c(c1)N(C(=O)COC1CCCC1)c1ccccc1CC2` [Compound 35, isopropyl (5-(2-(cyclopentyloxy)acetyl)-10,11-dihydro-5H-dibenzo[b,f]azepin-3-yl)carbamate], for which, under setting [1], the IC50 turned out to be 20 nM.

Take `CCOC(=O)Nc1ccc2c(c1)N(C(=O)CN(CC)CC)c1ccccc1CC2` [Compound 1, ethyl (5-(diethylglycyl)-10,11-dihydro-5H-dibenzo[b,f]azepin-3-yl)carbamate]: under setting [2], the inhibition at 70 µM was found to be 116%. Further, the IC50 is, setting by setting: (Table 4, read-out: IC50) 690 nM; under setting [1], 690 nM.

For `CC(C)OC(=O)Nc1ccc2c(c1)N(C(=O)OC1CCCC1)c1ccccc1CC2` [Compound 56], the IC50 (Table 4, read-out: IC50) came to 16 nM.

As for `O=C(Nc1ccc2c(c1)N(C(=O)c1cccs1)c1ccccc1CC2)OC1CCCCC1` [Compound 68], the IC50 (Table 4, read-out: IC50) was found to be 19 nM.

On to `CCOCC(=O)N1c2ccccc2CCc2ccc(NC(=O)OC(C)C)cc21` [Compound 29, isopropyl (5-(2-ethoxyacetyl)-10,11-dihydro-5H-dibenzo[b,f]azepin-3-yl)carbamate], for which the IC50 under setting [1] was determined as 11400 nM.

Consider `CCCN(CCC)CC(=O)N1c2ccccc2CCc2ccc(NC(=O)OC(C)C)cc21` [Compound 28, isopropyl (5-(dipropylglycyl)-10,11-dihydro-5H-dibenzo[b,f]azepin-3-yl)carbamate], for which the half-maximal inhibitory concentration (IC50) under setting [1] came out at 120 nM.

As for `CCN(CC)CCC(=O)N1c2ccccc2CCc2ccc(NC(=O)OC(C)C)cc21` [Compound 25, isopropyl (5-(3-(diethylamino)propanoyl)-10,11-dihydro-5H-Dibenzo[b,f]azepin-3-yl)carbamate], the IC50 under setting [1] stood at 6400 nM.

As to `CCOC(=O)Nc1ccc2c(c1)N(C(=O)CN(C(C)C)C(C)C)c1ccccc1CC2` [Compound 12, ethyl (5-(diisopropylglycyl)-10,11-dihydro-5H-dibenzo[b,f]azepin-3-yl)carbamate], the “fold increase of IC50 (decrease of activity) relative to lead chemical 1 (CINPA1)” value is reported as “more than 4 fold”. The inhibition at 70 µM under setting [2] was 110%. The IC50 (Table 4, read-out: IC50) stood at 3050 nM.

For the compound `CC(C)(C)COC(=O)N1c2ccccc2CCc2ccc(NC(=O)OC3CCCCC3)cc21` [Compound 61], the IC50 (Table 4, read-out: IC50) was 41 nM.

On to `O=C(Nc1ccc2c(c1)N(C(=O)c1ccco1)c1ccccc1CC2)OC1CCCCC1` [Compound 69], for which the half-maximal inhibitory concentration (IC50) (Table 4, read-out: IC50) was found to be 50 nM.

For `CCOC(=O)Nc1ccc2c(c1)N(C(=O)Cn1cccc1)c1ccccc1CC2` [Compound 16, ethyl (5-(2-(1H-pyrrol-1-yl)acetyl)-10,11-dihydro-5H-dibenzo[b,f]azepin-3-yl)carbamate], the “fold increase … over lead chemical 1 (CINPA1)” value stood at 19 fold. Besides, the inhibition at 70 µM under setting [2] came to 121%. Also, under setting [1], the IC50 amounted to 37 nM. Moreover, the “fold more potent than chemical 13” value (relative to chemical 13) stood at 43 fold.

With `CCN(CC)C(=O)N1c2ccccc2CCc2ccc(NC(=O)OC(C)C)cc21` [Compound 54], where the note is “Table 4, read-out: IC50”, the IC50 was found to be 19 nM.

`CC(C)OC(=O)Nc1ccc2c(c1)N(C(=O)COC1COC1)c1ccccc1CC2` [Compound 49]: the IC50 (Table 4, read-out: IC50) was found to be 660 nM.

In the case of `CC(C)OC(=O)Nc1ccc2c(c1)N(C(=O)c1cccs1)c1ccccc1CC2` [Compound 64], the IC50 (Table 4, read-out: IC50) stood at 12 nM.
